Patent US20210085640A1, “ACYLATED CATECHIN POLYPHENOLS AND METHODS OF THEIR USE FOR THE TREATMENT OF CANCER” (Flagship Pioneering Innovations V, Inc., priority 2018, published 2021)

Tests used:
Assay type in all cases: cell-based
MCF7 breast cancer cells = assay: Cancer cell survival (CellTiter-Glo), MCF7; details: 72 h
Procedure: (§1) The cells were prepared as follows. Cells were harvested during logarithmic growth, counted, and adjusted to 4.44×10^4 cells/mL with culture media. 90 μL of suspended cells were added to wells of 96-well plates for a final cell count of 4×10^3 cells/well. The plates were incubated overnight at 37 C with 5% CO2 overnight.
(§2) The test compounds were assayed as follows. Compound solutions were mixed at 10× final concentrations in cell media: 1 μM-10 mM (fatty acids) or 100 nM-1 mM (all other compounds). […] of solution was added to each well of cells in triplicate for each concentration. Well plates were incubated for 72 h at 37 C with 5% CO2 and then assayed with CellTiter-Glo by adding 50 μL of CTG solution to each well. Cells were lysed by shaking on an orbital shaker for 5 min. Plates were incubated at room temperature for 20 min and then each well's luminescence was measured. The surviving percentage of cells was determined as:
(§3) Survival %=(LumTest article−LumMedium control)/(LumNone treated−LumMedium control)[…]
(§4) Cytotoxicity was assessed at nine concentration levels for each compound and the 50% inhibition concentration (IC50) determined for each compound.

AGS stomach cancer cells = assay: Cancer cell survival (CellTiter-Glo), AGS; design: Cell survival at given concentration: unit not given here
Procedure: as §1, §2, §3, §4

A549 lung cancer cells = assay: Cancer cell survival (CellTiter-Glo), A549; details: 72 h
Procedure: as §1, §2, §3, §4

[1] = tested on: Daudi lymphoma cancer cells; assay: Cancer cell survival (CellTiter-Glo), Daudi; details: 72 h
Procedure: as §1, §2, §3
Activity was assessed at nine concentration levels for each compound and the 50% inhibition concentration (IC50) determined for each compound.

T24 bladder cancer cells = assay: Cancer cell survival (CellTiter-Glo), T24; details: 72 h
Procedure: as §1, §2, §3
Efficacy was assessed at nine concentration levels for each compound and the 50% inhibition concentration (IC50) determined for each compound.

[2] = tested on: HCT 116 colorectal cancer cells; assay: Cancer cell survival (CellTiter-Glo), HCT 116; details: HCT 116 cells, 72 h
Procedure: as §1, §2, §3, §4

[3] = tested on: PC-3 prostate cancer cells; assay: Cancer cell survival (CellTiter-Glo), PC-3; details: PC-3 cells, 72 h
Procedure: as §1, §2, §3, §4

A-431 skin cancer cells = assay: Cancer cell survival (CellTiter-Glo), A-431; design: Cell survival at given concentration: unit not given here; details: A-431 cells, 72 h
Procedure: as §1, §2, §3, §4

## CC(O)CCO (centres unmarked) [butanediol]
MCF7 breast cancer cells; 1 μM, Table 5.2
  Cell survival at given concentration: 1.00
MCF7 breast cancer cells; 3 μM, Table 5.2
  Cell survival at given concentration: 0.99
MCF7 breast cancer cells; 10 μM, Table 5.2
  Cell survival at given concentration: 0.98
MCF7 breast cancer cells; 32 μM, Table 5.2
  Cell survival at given concentration: 1.02
MCF7 breast cancer cells; 100 μM, Table 5.2
  Cell survival at given concentration: 1.03
MCF7 breast cancer cells; 317 μM
  Cell survival at given concentration: 1.01
MCF7 breast cancer cells; 1 mM
  Cell survival at given concentration: 1.00
MCF7 breast cancer cells; 3 mM
  Cell survival at given concentration: 0.98
MCF7 breast cancer cells; 10 mM
  Cell survival at given concentration: 0.96
AGS stomach cancer cells; 1 μM, Table 10.2
  Cell survival at given concentration: 1.01
AGS stomach cancer cells; 3 μM, Table 10.2
  Cell survival at given concentration: 1.02
AGS stomach cancer cells; 10 μM, Table 10.2
  Cell survival at given concentration: 1.03
AGS stomach cancer cells; 32 μM, Table 10.2
  Cell survival at given concentration: 1.05
AGS stomach cancer cells; 100 μM, Table 10.2
  Cell survival at given concentration: 1.04
AGS stomach cancer cells; 317 μM
  Cell survival at given concentration: 1.02
AGS stomach cancer cells; 1 mM
  Cell survival at given concentration: 1.06
AGS stomach cancer cells; 3 mM
  Cell survival at given concentration: 1.02
AGS stomach cancer cells; 10 mM
  Cell survival at given concentration: 0.98
A549 lung cancer cells; 1 μM, Table 7.2
  Cell survival at given concentration: 0.95
A549 lung cancer cells; 3 μM, Table 7.2
  Cell survival at given concentration: 0.97
A549 lung cancer cells; 10 μM, Table 7.2
  Cell survival at given concentration: 1.03
A549 lung cancer cells; 32 μM, Table 7.2
  Cell survival at given concentration: 1.01
A549 lung cancer cells; 100 μM, Table 7.2
  Cell survival at given concentration: 1.00
A549 lung cancer cells; 317 μM
  Cell survival at given concentration: 1.02
A549 lung cancer cells; 1 mM
  Cell survival at given concentration: 1.01
A549 lung cancer cells; 3 mM
  Cell survival at given concentration: 0.97
A549 lung cancer cells; 10 mM
  Cell survival at given concentration: 0.98
[1]; 1 μM, Table 4.2
  Cell survival at given concentration: 0.98
[1]; 3 μM, Table 4.2
  Cell survival at given concentration: 0.97
[1]; 10 μM, Table 4.2
  Cell survival at given concentration: 0.97
[1]; 32 μM, Table 4.2
  Cell survival at given concentration: 0.98
[1]; 100 μM, Table 4.2
  Cell survival at given concentration: 1.00
[1]; 317 μM
  Cell survival at given concentration: 1.01
[1]; 1 mM
  Cell survival at given concentration: 1.00
[1]; 3 mM
  Cell survival at given concentration: 1.00
[1]; 10 mM
  Cell survival at given concentration: 1.00
T24 bladder cancer cells; 1 μM, Table 3.2
  Cell survival at given concentration: 1.02
T24 bladder cancer cells; 3 μM, Table 3.2
  Cell survival at given concentration: 1.03
T24 bladder cancer cells; 10 μM, Table 3.2
  Cell survival at given concentration: 0.99
T24 bladder cancer cells; 32 μM, Table 3.2
  Cell survival at given concentration: 1.00
T24 bladder cancer cells; 100 μM, Table 3.2
  Cell survival at given concentration: 1.01
T24 bladder cancer cells; 317 μM
  Cell survival at given concentration: 1.03
T24 bladder cancer cells; 1 mM
  Cell survival at given concentration: 1.02
T24 bladder cancer cells; 3 mM
  Cell survival at given concentration: 1.00
T24 bladder cancer cells; 10 mM
  Cell survival at given concentration: 1.00
[2]; 1 μM, Table 6.2
  Cell survival at given concentration: 0.98
[2]; 3 μM, Table 6.2
  Cell survival at given concentration: 0.96
[2]; 10 μM, Table 6.2
  Cell survival at given concentration: 0.98
[2]; 32 μM, Table 6.2
  Cell survival at given concentration: 0.97
[2]; 100 μM, Table 6.2
  Cell survival at given concentration: 1.00
[2]; 317 μM
  Cell survival at given concentration: 1.02
[2]; 1 mM
  Cell survival at given concentration: 1.01
[2]; 3 mM
  Cell survival at given concentration: 0.99
[2]; 10 mM
  Cell survival at given concentration: 0.95
[3]; 1 μM, Table 8.2
  Cell survival at given concentration: 1.00
[3]; 3 μM, Table 8.2
  Cell survival at given concentration: 0.99
[3]; 10 μM, Table 8.2
  Cell survival at given concentration: 1.03
[3]; 32 μM, Table 8.2
  Cell survival at given concentration: 1.02
[3]; 100 μM, Table 8.2
  Cell survival at given concentration: 1.00
[3]; 317 μM
  Cell survival at given concentration: 1.02
[3]; 1 mM
  Cell survival at given concentration: 0.97
[3]; 3 mM
  Cell survival at given concentration: 0.98
[3]; 10 mM
  Cell survival at given concentration: 0.96
A-431 skin cancer cells; 1 μM, Table 9.2
  Cell survival at given concentration: 1.02
A-431 skin cancer cells; 3 μM, Table 9.2
  Cell survival at given concentration: 1.03
A-431 skin cancer cells; 10 μM, Table 9.2
  Cell survival at given concentration: 1.04
A-431 skin cancer cells; 32 μM, Table 9.2
  Cell survival at given concentration: 1.04
A-431 skin cancer cells; 100 μM, Table 9.2
  Cell survival at given concentration: 1.03
A-431 skin cancer cells; 317 μM
  Cell survival at given concentration: 1.04
A-431 skin cancer cells; 1 mM
  Cell survival at given concentration: 1.02
A-431 skin cancer cells; 3 mM
  Cell survival at given concentration: 1.02
A-431 skin cancer cells; 10 mM
  Cell survival at given concentration: 1.01

## CC(=O)O [acetate]
MCF7 breast cancer cells; 1 μM, Table 5.2
  Cell survival at given concentration: 1.01
MCF7 breast cancer cells; 3 μM, Table 5.2
  Cell survival at given concentration: 1.02
MCF7 breast cancer cells; 10 μM, Table 5.2
  Cell survival at given concentration: 0.98
MCF7 breast cancer cells; 32 μM, Table 5.2
  Cell survival at given concentration: 1.03
MCF7 breast cancer cells; 100 μM, Table 5.2
  Cell survival at given concentration: 1.02
MCF7 breast cancer cells; 317 μM
  Cell survival at given concentration: 1.04
MCF7 breast cancer cells; 1 mM
  Cell survival at given concentration: 0.99
MCF7 breast cancer cells; 3 mM
  Cell survival at given concentration: 0.99
MCF7 breast cancer cells; 10 mM
  Cell survival at given concentration: 0.91
AGS stomach cancer cells; 1 μM, Table 10.2
  Cell survival at given concentration: 0.99
AGS stomach cancer cells; 3 μM, Table 10.2
  Cell survival at given concentration: 1.00
AGS stomach cancer cells; 10 μM, Table 10.2
  Cell survival at given concentration: 1.02
AGS stomach cancer cells; 32 μM, Table 10.2
  Cell survival at given concentration: 1.03
AGS stomach cancer cells; 100 μM, Table 10.2
  Cell survival at given concentration: 1.03
AGS stomach cancer cells; 317 μM
  Cell survival at given concentration: 1.03
AGS stomach cancer cells; 1 mM
  Cell survival at given concentration: 1.02
AGS stomach cancer cells; 3 mM
  Cell survival at given concentration: 1.03
AGS stomach cancer cells; 10 mM
  Cell survival at given concentration: 1.02
A549 lung cancer cells; 1 μM, Table 7.2
  Cell survival at given concentration: 1.00
A549 lung cancer cells; 3 μM, Table 7.2
  Cell survival at given concentration: 1.01
A549 lung cancer cells; 10 μM, Table 7.2
  Cell survival at given concentration: 1.00
A549 lung cancer cells; 32 μM, Table 7.2
  Cell survival at given concentration: 1.06
A549 lung cancer cells; 100 μM, Table 7.2
  Cell survival at given concentration: 1.09
A549 lung cancer cells; 317 μM
  Cell survival at given concentration: 1.02
A549 lung cancer cells; 1 mM
  Cell survival at given concentration: 1.03
A549 lung cancer cells; 3 mM
  Cell survival at given concentration: 1.03
A549 lung cancer cells; 10 mM
  Cell survival at given concentration: 1.00
[1]; 1 μM, Table 4.2
  Cell survival at given concentration: 1.00
[1]; 3 μM, Table 4.2
  Cell survival at given concentration: 0.99
[1]; 10 μM, Table 4.2
  Cell survival at given concentration: 0.99
[1]; 32 μM, Table 4.2
  Cell survival at given concentration: 1.01
[1]; 100 μM, Table 4.2
  Cell survival at given concentration: 1.02
[1]; 317 μM
  Cell survival at given concentration: 1.02
[1]; 1 mM
  Cell survival at given concentration: 1.01
[1]; 3 mM
  Cell survival at given concentration: 0.97
[1]; 10 mM
  Cell survival at given concentration: 0.75
T24 bladder cancer cells; 1 μM, Table 3.2
  Cell survival at given concentration: 0.97
T24 bladder cancer cells; 3 μM, Table 3.2
  Cell survival at given concentration: 0.97
T24 bladder cancer cells; 10 μM, Table 3.2
  Cell survival at given concentration: 1.04
T24 bladder cancer cells; 32 μM, Table 3.2
  Cell survival at given concentration: 0.97
T24 bladder cancer cells; 100 μM, Table 3.2
  Cell survival at given concentration: 1.00
T24 bladder cancer cells; 317 μM
  Cell survival at given concentration: 1.01
T24 bladder cancer cells; 1 mM
  Cell survival at given concentration: 0.99
T24 bladder cancer cells; 3 mM
  Cell survival at given concentration: 0.97
T24 bladder cancer cells; 10 mM
  Cell survival at given concentration: 0.91
[2]; 1 μM, Table 6.2
  Cell survival at given concentration: 1.01
[2]; 3 μM, Table 6.2
  Cell survival at given concentration: 1.03
[2]; 10 μM, Table 6.2
  Cell survival at given concentration: 1.03
[2]; 32 μM, Table 6.2
  Cell survival at given concentration: 1.03
[2]; 100 μM, Table 6.2
  Cell survival at given concentration: 1.06
[2]; 317 μM
  Cell survival at given concentration: 1.02
[2]; 1 mM
  Cell survival at given concentration: 1.02
[2]; 3 mM
  Cell survival at given concentration: 1.00
[2]; 10 mM
  Cell survival at given concentration: 0.84
[2]; Table 6.2
  IC50: > 10 mM
[3]; 1 μM, Table 8.2
  Cell survival at given concentration: 1.05
[3]; 3 μM, Table 8.2
  Cell survival at given concentration: 1.00
[3]; 10 μM, Table 8.2
  Cell survival at given concentration: 1.02
[3]; 32 μM, Table 8.2
  Cell survival at given concentration: 1.03
[3]; 100 μM, Table 8.2
  Cell survival at given concentration: 1.07
[3]; 317 μM
  Cell survival at given concentration: 1.05
[3]; 1 mM
  Cell survival at given concentration: 1.01
[3]; 3 mM
  Cell survival at given concentration: 1.00
[3]; 10 mM
  Cell survival at given concentration: 0.88
[3]; Table 8.2
  IC50: > 10 mM
A-431 skin cancer cells; 1 μM, Table 9.2
  Cell survival at given concentration: 1.02
A-431 skin cancer cells; 3 μM, Table 9.2
  Cell survival at given concentration: 1.03
A-431 skin cancer cells; 10 μM, Table 9.2
  Cell survival at given concentration: 1.06
A-431 skin cancer cells; 32 μM, Table 9.2
  Cell survival at given concentration: 1.03
A-431 skin cancer cells; 100 μM, Table 9.2
  Cell survival at given concentration: 1.05
A-431 skin cancer cells; 317 μM
  Cell survival at given concentration: 1.05
A-431 skin cancer cells; 1 mM
  Cell survival at given concentration: 1.05
A-431 skin cancer cells; 3 mM
  Cell survival at given concentration: 1.02
A-431 skin cancer cells; 10 mM
  Cell survival at given concentration: 0.99
